Laboratory results reported in US8067456B2 (AEterna Zentaris GmbH, priority 2004, dated 2011).
Structures can show the parent of a compound that is named as a salt.

Molecular target: T1, rat LHRH receptor (Rattus norvegicus, UniProt P30969)
T1 construct: expressed in transfected cells; host or cells: LTK cells (mouse fibroblasts, ATCC CCL-1.3)
T1 sequence (P30969 1-327): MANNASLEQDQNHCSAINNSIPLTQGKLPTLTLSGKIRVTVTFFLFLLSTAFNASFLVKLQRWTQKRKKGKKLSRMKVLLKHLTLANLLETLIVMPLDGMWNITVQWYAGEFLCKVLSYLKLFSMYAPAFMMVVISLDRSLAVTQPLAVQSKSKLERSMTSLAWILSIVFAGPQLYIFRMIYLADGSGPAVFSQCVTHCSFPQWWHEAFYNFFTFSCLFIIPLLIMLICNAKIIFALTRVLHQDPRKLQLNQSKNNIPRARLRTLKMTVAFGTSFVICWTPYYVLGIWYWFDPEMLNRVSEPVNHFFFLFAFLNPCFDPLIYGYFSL
Test: LHRH receptor-ligand binding assay (transfected LTK cells)
Conditions: not given
Procedure: ^125I-Triptorelin [^125I-(D)-Trp6-GnRH] was purchased from Biotrend (Cologne, Germany).
The specific activity was in each case 2.13 Ci/mmol.
LTK cells (mouse fibroblasts: ATCC No. CCL-1.3) which have been transfected with the rat LHRH receptor are cultivated in DMEM medium (Invitrogen Life Technologies, Germany) with penicillin (100 I.U./ml), streptomycin (0.1 mg/ml) and glutamine (0.01 mol/l) and 10% fetal calf serum (FCS; Invitrogen Life Technologies, Germany) on plastic tissue culture plates (Nunc, Germany, 245×245-20 mm).
80% confluent cell culture plates are washed twice with 50 ml of phosphate-buffered saline (PBS) and then detached with 0.01 M EDTA solution. The cells are pelleted by centrifugation at 200·g for 5 min in a laboratory centrifuge (Kendro, Germany). The cell pellet is resuspended in 3 ml of binding medium (DMEM; 10 mM Hepes; 0.5% BSA; 0.1% […]; 1 g/l bacitracin (add fresh, stock 100×); 0.1 g/l SBTI (add fresh, stock 1000×) and the cell count is determined by Trypan blue staining in a Neubauer counting chamber. The cell suspension is adjusted with binding medium to a concentration of 5×10^5 cells/0.05 ml.
Binding studies for competition plots are carried out as duplicates. The test substances are employed as 10 mM DMSO solutions. They are diluted to 4 times the final concentration employed with binding medium. 25 μl of the substance dilution are mixed with 25 μl of tracer solution (^125I-triptorelin or ^125I-cetrorelix). The tracer concentration is adjusted to approx. 50 000 cpm (measured in a Cobra II, γ counter. PE Liefe Science, Germany) in the final reaction volume of 100 μl.
200 μl of silicone/liquid paraffin mixture (84%:16%) are introduced into 650 μl conical tubes (Roth. Germany). 50 μl of the cell suspension are pipetted thereon, followed by 50 μl of the test substance/tracer mixture. The tubes are capped and incubated with vertical rotation in an incubator at 37° C. for 60 min. After incubation, the samples are centrifuged in a centrifuge (Kendro, Germany) at 900 rpm and subsequently shock-frozen in liquid N2. The tip with the cell pellet is cut off and transferred into prepared counting vials (Roth, Germany). The remainder of the conical tube with the remaining supernatant is likewise transferred into a counting vial. The measurement takes place in a γ counter for 1 min/sample.
Evaluation of the samples takes place after calculation of the specific binding compared with untreated cells, after subtraction of the nonspecific binding (excess of unlabeled ligand, 1 μM) by means of GraphPad Prism or alternatively by means of OMMM software.

Row | Compound | EC50 [nM]
1 | CCC(C)[C@H](NC(=O)[C@@]1(NC(=O)[C@H](CCc2ccc(OP(=O)(O)O)cc2)NC(=O)OCc2ccccc2)CCc2[nH]c3c(Cl)cc(Cl)cc3c2C1)C(N)=S (stereo partly drawn) [Compound 12, benzyl[(S)-1-[(R)-6,8-dichloro-3-((S)-2-methyl-1-thiocarbamoylbutylcarbamoyl)-2,3,4,9-tetrahydro-1H-carbazol-3-ylcarbamoyl]-3-(4-phosphonooxyphenyl)propyl]carbamate] | 39.2

Same assay, conditions: LTK cells transfected with rat LHRH receptor, 125I-triptorelin tracer, 37° C., 60 min; read-out: Binding to r-LHRHR EC50

Row | Compound | EC50 [nM]
2 | CCC(C)[C@H](NC(=O)[C@@]1(NC(=O)[C@H](CCc2ccc(O)cc2)NC(=O)Cc2ccccc2F)CCc2[nH]c3c(Cl)cc(Cl)cc3c2C1)C(N)=S (stereo partly drawn) [Compound 14, (R)-6,8-dichloro-3-[(S)-2-[2-(2-fluorophenyl)acetylamino]-4-(4-hydroxyphenyl)butyrylamino]-2,3,4,9-tetrahydro-1H-carbazole-3-carboxylic acid ((S)-2-methyl-1-thiocarbamoyl-butyl)amide] | 2.05
3 | CCC(C)[C@H](NC(=O)OCc1ccccc1)C(=O)N[C@]1(C(=O)N[C@H](C(N)=S)C(C)CC)CCc2[nH]c3c(Cl)cc(F)cc3c2C1 (stereo partly drawn) [Compound 25, benzyl {(S)-1-[(R)-8-chloro-6-fluoro-3-((S)-2-methyl-1-thiocarbamoylbutylcarbamoyl)-2,3,4,9-tetrahydro-1H-carbazol-3-ylcarbamoyl]-2-methylbutyl}carbamate] | 4.2
4 | CCC(C)[C@H](NC(=O)[C@@]1(NC(=O)[C@H](CCc2ccc(O)cc2)NC(=O)CCc2ccccc2F)CCc2[nH]c3c(Cl)cc(Cl)cc3c2C1)C(N)=O (stereo partly drawn) [Compound 22] | 24.6
5 | CCC(C)[C@H](NC(=O)CCc1ccc(F)cc1)C(=O)N[C@]1(C(=O)N[C@H](C(N)=O)C(C)C)CCc2[nH]c3c(Cl)cc(Cl)cc3c2C1 (stereo partly drawn) [Compound 16, (R)-6,8-dichloro-3-((S)-2-[3-(4-fluorophenyl)propionylamino]-3-methylpentanoylamino)-2,3,4,9-tetrahydro-1H-carbazole-3-carboxylic acid ((S)-1-carbamoyl-2-methylpropyl)amide] | 628
6 | CCC(C)[C@H](NC(=O)OCc1ccc(Cl)cc1)C(=O)N[C@]1(C(=O)N[C@H](C(N)=O)C(C)C)CCc2[nH]c3c(Cl)cc(Cl)cc3c2C1 (stereo partly drawn) [Compound 2, 4-chlorobenzyl {(S)-1-[(R)-3-((S)-1-carbamoyl-2-methylpropylcarbamoyl)-6,8-dichloro-2,3,4,9-tetrahydro-1H-carbazol-3-ylcarbamoyl]-2-methylbutyl}carbamate] | 205
7 | CC(C)[C@H](NC(=O)[C@@]1(NC(=O)[C@@H](NC(=O)OCc2ccc(Cl)cc2)C(C)C)CCc2[nH]c3c(Cl)cc(Cl)cc3c2C1)C(N)=O [Compound 1, 4-chlorobenzyl {(S)-1-[(R)-3-((S)-1-carbamoyl-2-methylpropylcarbamoyl)-6,8-dichloro-2,3,4,9-tetrahydro-1H-carbazol-3-ylcarbamoyl]-2-methylpropyl}carbamate] | 261
8 | CC(C)[C@H](NC(=O)[C@@]1(NC(=O)[C@H](CCCCN)NC(=O)CCc2ccc(F)cc2)CCc2[nH]c3c(Cl)cc(Cl)cc3c2C1)C(N)=O [Compound 17, (S)-5-[(R)-3-((S)-1-carbamoyl-2-methylpropylcarbamoyl)-6,8-dichloro-2,3,4,9-tetrahydro-1H-carbazol-3-ylcarbamoyl]-5-[3-(4-fluorophenyl)propionylamino]pentylammonium trifluoroacetate] | 525

Second part, the compound after the results:

Row | EC50 [nM] | Compound
9 | 104 | 2-chlorobenzyl {(S)-1-[(R)-3-((S)-carbamoyl-2-methylbutylcarbamoyl)-6,8-dichloro-2,3,4,9-tetrahydro-1H-carbazol-3-ylcarbamoyl]-2-methylbutyl}carbamate [Compound 6]
10 | 98.3 | CCC(C)[C@H](NC(=O)[C@@]1(NC(=O)[C@@H](NC(=O)Cc2cccc(F)c2)C(C)CC)CCc2[nH]c3c(Cl)cc(Cl)cc3c2C1)C(N)=O (stereo partly drawn) [Compound 5, (R)-6,8-dichloro-3-{(S)-2-[2-(3-fluorophenyl)acetylamino]-3-methylpentanoylamino}-2,3,4,9-tetrahydro-1H-carbazole-3-carboxylic acid ((S)-1-carbamoyl-2-methylbutyl)amide]
11 | 72.9 | CCC(C)[C@H](NC(=O)[C@@]1(NC(=O)[C@@H](NC(=O)CCc2ccccc2F)C(C)CC)CCc2[nH]c3c(Cl)cc(Cl)cc3c2C1)C(N)=O (stereo partly drawn) [Compound 23, (R)-6,8-dichloro-3-{(S)-2-[3-(2-fluorophenyl)propionylamino]-3-methylpentanoylamino}-2,3,4,9-tetrahydro-1H-carbazole-3-carboxylic acid ((S)-1-carbamoyl-2-methylbutyl)amide]
12 | 47.2 | CCC(C)[C@H](NC(=O)[C@@]1(NC(=O)[C@@H](NC(=O)OCc2ccc(Cl)cc2)C(C)CC)CCc2[nH]c3c(Cl)cc(Cl)cc3c2C1)C(N)=O (stereo partly drawn) [Compound 3, 4-chlorobenzyl {(S)-1-[(R)-3-((S)-carbamoyl-2-methylbutylcarbamoyl)-6,8-dichloro-2,3,4,9-tetrahydro-1H-carbazol-3-ylcarbamoyl]-2-methylbutyl}carbamate]
13 | 45.3 | CCC(C)[C@H](NC(=O)[C@@]1(NC(=O)[C@H](CCc2ccc(OC(=O)OCc3ccccc3)cc2)NC(=O)OCc2ccccc2)CCc2[nH]c3c(Cl)cc(Cl)cc3c2C1)C(N)=O (stereo partly drawn) [Compound 8, benzyl 4-{(S)-3-benzyloxycarbonylamino-3-[(R)-3-((S)-1-carbamoyl-2-methylbutylcarbamoyl)-6,8-dichloro-2,3,4,9-tetrahydro-1H-carbazol-3-ylcarbamoyl]propyl}phenylcarbonate]
14 | 13.5 | CCC(C)[C@H](NC(=O)[C@@]1(NC(=O)[C@H](CCc2ccc(OCCOCCOCCOCCOC)cc2)NC(=O)OCc2ccccc2)CCc2[nH]c3c(Cl)cc(Cl)cc3c2C1)C(N)=S (stereo partly drawn) [Compound 24, benzyl {(S)-1-[(R)-6,8-dichloro-3-((S)-2-methyl-1-thiocarbamoylbutylcarbamoyl)-2,3,4,9-tetrahydro-1H-carbazol-3-ylcarbamoyl]-3-[4-(2-{2-[2-(2-methoxyethoxy)ethoxy]-ethoxy}ethoxy)phenyl]propyl}carbamate]
15 | 2.4 | CCC(C)[C@H](NC(=O)Cc1ccccc1F)C(=O)N[C@]1(C(=O)N[C@H](C(N)=S)C(C)CC)CCc2[nH]c3c(Cl)cc(Cl)cc3c2C1 (stereo partly drawn) [Compound 13, (R)-6,8-dichloro-3-{(S)-2-[2-(2-fluorophenyl)acetylamino]-3-methylpentanoylamino}-2,3,4,9-tetrahydro-1H-carbazole-3-carboxylic acid ((S)-2-methyl-1-thiocarbamoylbutyl)amide]
